We go through one compound from patent US11969448B2, “Method for improving an effect of chemotherapeutic drug of gemcitabine on inhibiting pancreatic cancer and improving side effect of chemotherapeutic drug of Gemcitabine” (GENMONT BIOTECH INC., priority 2020, dated 2024).

The subject of data set [1] is BXPC-3 pancreatic cancer cells. Briefly: MTT test, Experiment 2: BXPC-3 cells treated with probiotic lysates combined with Gemcitabine. The settings on record: Gemcitabine 10 ng/mL alone; cultured 0 to 6 days; FIG. 7A. The format is cell-based. The method, then: 2500 BXPC-3 pancreatic cancer cells were seeded into each well of a 96-well plate, and the 96-well plate was incubated at 37° C. overnight. After the old cell culture medium was aspirated, the fresh culture medium containing the lysate of the Lactobacillus reuteri GMNL-89, the lysate of the Lactobacillus paracasei GMNL-133 (25 ug/mL of concentration), or the lysate of the Lactobacillus reuteri GMNL-89 and the Lactobacillus paracasei GMNL-133 (i.e., the probiotic composition of the present disclosure) were respectively mixed with the fresh culture medium containing the chemotherapeutic drug of Gemcitabine (10 ng/mL of concentration) to be added to the BXPC-3 pancreatic cancer cells. Then, the BXPC-3 pancreatic cancer cells were cultured for 0 to 6 days. At different time points, based on day 0, the cell viability rate was determined by the MTT test, and the cell viability rate at different time points was calculated.

Data set [2] can be described thus: Side effects of Gemcitabine: body and muscle weight, serum biochemical and blood cell analysis in KC mice. In kind it is in vivo. An excerpt:
In the experiment, a 12-week-old LSL-Kras^G12D/−-Pdx-1-Cre (KC) gene transgenic mouse was used to simulate a mouse model of pancreatic cancer. The national laboratory animal center of National Applied Research Laboratories was entrusted to introduce the experimental animals from the Frederick National Laboratory for cancer research, and then conduct breeding, reproducing and embryo freezing, and then the experimental animals are bred in the animal center attached to Chung Shan Medical University in Taichung. The environment for feeding animals is controlled at a room temperature (20 to 23° C.) and in a humidity of 50 to 60%, and the light cycles of day and night are maintained for 12 hours respectively. Experimental animals are allowed to eat and drink freely. All animal experiment procedures were carried out in accordance with the protocol approved by institutional animal care and use committee (IACUC) of Chung Shan Medical University.
In order to induce acute pancreatitis in mice, Caerulein (25 μg/kg/h) were injected into the abdominal cavity of the mice by intraperitoneal (IP) injection every 7 hours 3 days before and 1 day before the experiment. The experimental mice were was divided into 4 groups. The chemotherapeutic drug of Gemcitabine was given with different concentrations (20, 50, 100, 200 mg/kg of body weight), and was administered by intraperitoneal injection for 4 consecutive weeks, once every 3 days, 10 times in total.
Two strains of the Lactobacillus paracasei GMNL-133 and the Lactobacillus reuteri GMNL-89 were used in the experiment, respectively with the ratio of 1:0.1 (1.64×10^7 CFU/0.02 kg of body weight: 1.64×10^6 CFU/0.02 kg of body weight) and the ratio of 1:1 (1.64×10^7 CFU/0.02 kg of body weight: 1.64×10^7 CFU/0.02 kg of body weight). The dosage used is based on that 12.3 times the recommended daily intake per kilogram of body weight for humans is 1 time the dose for mice. The probiotic composition was fed into the stomach of the mice by tube feeding, 5 days a week, once a day, 0.2 mL each time.
In order to study the adverse effects of the Caerulein, the chemotherapeutic drug of the Gemcitabine, and probiotic composition on serum biochemistry and blood cells, blood was collected after cardiac puncture in anesthetized mice, and the blood was immediately sent to Axel Biotechnology Inc. (Taichung) to perform blood tests and serum biochemical analysis.

The test system of data set [3] is advanced pancreatic cancer. The note with it: first-line chemotherapy for advanced pancreatic cancer; background statement; cited from earlier work.
For data set [4], the system named is Caerulein-treated LSL-KrasG12D/−-Pdx-1-Cre (KC) gene transgenic mice (pancreatic intraepithelial neoplasia lesions). In words: Histological staining (H&E, vimentin and Ki67 immunohistochemistry) of the pancreas in the mouse model of pancreatic cancer. The format is in vivo. The settings on record: FIG. 3.
Source text: After the mice were sacrificed, the pancreas tissue was collected, fixed with formalin solution (TONYAR biotech. Inc., Taiwan), embedded in paraffin, tissue sectioned, and then subjected to H&E staining and immunohistochemical staining. […]
[5] abbreviates: Caerulein-treated KC mice, Gemcitabine 200 mg/kg alone.
The mark [6] stands for this setting: Gemcitabine 20, 50, 100, 200 mg/kg IP alone, compared with untreated mice.

On to `Nc1ccn([C@@H]2O[C@H](CO)[C@@H](O)C2(F)F)c(=O)n1` [Gemcitabine], for which, in data set [1], the “cell viability rate (time of lowest value)” value is recorded as “reached the lowest on the sixth day” and the “death of BXPC-3 pancreatic cancer cells (onset)” value is reported as “caused the death of the BXPC-3 pancreatic cancer cells from the second day”. Also, in data set [2] (setting [5]), the ALT is 60 U/L, the AST stood at 351 U/L, the Body weight is listed as 21.10 ± 1.44 g and the Gastrocnemius muscle weight was determined as 0.13 ± 0.00 g. Besides, in data set [2] (setting [5]), the Platelets is on record as 1222.00 K/μL, the Red blood cell worked out at 8.70 M/μL and the White blood cell is 3.04 K/μL. Besides, the “body weight and muscle (gastrocnemius) weight” value in data set [2] (KC mice treated with Caerulein (25 μg/kg), Gemcitabine alone) is “lose weight and muscle (gastrocnemius) weight significantly”. Also, the “liver function index of AST and ALT” value in data set [2] (KC mice treated with Caerulein (25 μg/kg), only Gemcitabine) is given as “prone to elevate”. Further, in data set [3], the “5-year survival rate of patients” value is 30%. In data set [4] (Gemcitabine 100 mg/kg and 200 mg/kg), the “tissue staining results at the two high doses” value is given as “excellent results”. Moreover, in data set [4] (setting [6]), the “expressions of the vimentin and the cell proliferation marker of Ki67” value was “also lower”; the “pancreatic intraepithelial neoplasia lesion grades (H&E staining)” value was “lower than those of the untreated mice”.
